Reference: publication PMC12084609, “Structural insights into small-molecule agonist recognition and activation of complement receptor C3aR” (The EMBO Journal, 2025)
Substitutions are numbered along the chain they refer to. Where “and” joins values, the source holds several entries; their conditions need not be identical. Identical values can stand only once. Like-named read-outs stand apart in the source and are kept apart here.

How the values were obtained:
Assay type in all cases: cell-based
C3aR = C3aR (Homo sapiens, UniProt Q16581); test: Gi recruitment BRET assay (C3aR-eYFP / Gαi-Rluc8, HEK293T); details: for ΔBRET (ligand-vehicle): individual replicates
C3aR, sequence (Q16581 whole entry): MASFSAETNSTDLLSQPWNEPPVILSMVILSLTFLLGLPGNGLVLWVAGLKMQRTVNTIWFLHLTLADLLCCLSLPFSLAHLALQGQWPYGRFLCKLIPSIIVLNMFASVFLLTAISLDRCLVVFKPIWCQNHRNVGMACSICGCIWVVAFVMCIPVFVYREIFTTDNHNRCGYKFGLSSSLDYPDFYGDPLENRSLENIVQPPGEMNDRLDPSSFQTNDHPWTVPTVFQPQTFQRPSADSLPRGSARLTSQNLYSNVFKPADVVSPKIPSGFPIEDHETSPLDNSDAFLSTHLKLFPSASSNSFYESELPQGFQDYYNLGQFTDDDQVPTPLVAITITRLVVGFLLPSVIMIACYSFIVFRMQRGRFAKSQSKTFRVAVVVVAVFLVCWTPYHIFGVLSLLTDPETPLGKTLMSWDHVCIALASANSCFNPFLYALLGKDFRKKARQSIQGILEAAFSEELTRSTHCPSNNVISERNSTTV
C3aR, sequence (P63096 2-354 partner limits assumed): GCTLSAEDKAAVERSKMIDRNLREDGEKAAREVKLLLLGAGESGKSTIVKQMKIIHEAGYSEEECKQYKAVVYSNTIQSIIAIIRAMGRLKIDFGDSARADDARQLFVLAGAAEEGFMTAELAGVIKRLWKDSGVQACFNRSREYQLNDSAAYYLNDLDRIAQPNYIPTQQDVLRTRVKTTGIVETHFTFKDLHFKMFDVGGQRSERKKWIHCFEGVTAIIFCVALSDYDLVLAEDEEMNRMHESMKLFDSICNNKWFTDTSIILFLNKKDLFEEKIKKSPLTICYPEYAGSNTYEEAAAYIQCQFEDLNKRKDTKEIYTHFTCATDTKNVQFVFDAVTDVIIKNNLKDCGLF
C3aR, sequence (P62873 2-340 partner limits assumed): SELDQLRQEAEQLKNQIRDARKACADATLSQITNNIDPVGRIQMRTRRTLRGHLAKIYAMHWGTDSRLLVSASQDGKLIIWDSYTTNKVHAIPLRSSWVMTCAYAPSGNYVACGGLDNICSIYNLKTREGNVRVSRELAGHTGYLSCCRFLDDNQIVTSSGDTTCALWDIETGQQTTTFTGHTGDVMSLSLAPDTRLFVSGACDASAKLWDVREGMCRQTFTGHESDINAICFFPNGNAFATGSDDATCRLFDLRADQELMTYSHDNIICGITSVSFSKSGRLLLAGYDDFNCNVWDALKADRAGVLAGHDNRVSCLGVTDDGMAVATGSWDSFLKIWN
C3aR, sequence (P59768 2-68 partner limits assumed): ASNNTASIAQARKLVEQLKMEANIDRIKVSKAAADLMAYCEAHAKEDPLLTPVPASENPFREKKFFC
Protocol: HEK293T cells were seeded on 6-well plates (NEST) and transfected with pcDNA3.1 plasmids encoding C3aR-eYFP, Gαi-Rluc8, Gβ1, and Gγ2 with a ratio of 5:1:1:1. After 48 h, cells were harvested and resuspended with in PBS. Cells were treated with test ligand with various concentrations and seeded on 96-well white bottom plates (SPL). After 3 min incubation at 37 °C, coelenterazine h (Nanolight) was added with a final concentration of 10 μM. Luminescence and fluorescence were measured using a Tristar 2 LB 942 multimode reader (Berthold).

C3aR H81^2.63A = target: T1, C3aR H81^2.63A (Homo sapiens, UniProt Q16581, H81A); test: GloSensor-based cAMP assay, C3aR mutant H81A
T1 construct: expressed in transfected cells; host or cells: HEK293T
T1 sequence (Q16581 1-482 H81A): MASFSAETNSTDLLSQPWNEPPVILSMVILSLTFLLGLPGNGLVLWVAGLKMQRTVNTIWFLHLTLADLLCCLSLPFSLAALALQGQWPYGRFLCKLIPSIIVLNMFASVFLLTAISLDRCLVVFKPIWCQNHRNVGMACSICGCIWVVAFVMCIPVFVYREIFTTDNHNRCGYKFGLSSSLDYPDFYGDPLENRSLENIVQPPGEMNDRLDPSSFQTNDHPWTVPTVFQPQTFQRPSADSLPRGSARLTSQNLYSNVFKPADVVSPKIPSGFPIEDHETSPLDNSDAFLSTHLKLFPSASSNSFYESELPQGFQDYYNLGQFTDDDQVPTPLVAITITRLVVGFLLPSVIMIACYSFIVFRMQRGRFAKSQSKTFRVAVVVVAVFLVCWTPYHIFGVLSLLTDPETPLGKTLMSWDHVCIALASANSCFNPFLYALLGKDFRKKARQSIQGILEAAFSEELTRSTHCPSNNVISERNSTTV
Protocol: (§1) HEK293T cells were seeded on 6-well plates (NEST) and transfected with pGlosensor™-22F plasmids (Promega) and pcDNA3.1 plasmids encoding C3aR or its mutants an with N-terminal FLAG tag. After 48 h, cells were detached with Accutase solution (Sigma-Aldrich) and washed with PBS, and resuspended in assay buffer (CO2-independent medium with 0.5 mg mL^−1D-luciferin). 100,000–200,000 cells were seeded on 96-well white bottom plates (SPL) and incubated at 37 °C for 45 min followed by 45 min incubation at room temperature. After 90 min of incubation, basal luminescence signals were recorded. In total, 25 μl of test ligand with various concentrations and 1 μM Forskolin (Sigma-Aldrich) were treated to the cells and luminescence signals were measured by Tristar 2 LB 942 multimode reader (Berthold). […] Relative luminescence unit (%) was calculated with the signal of wells treated with vehicle as 0% and the signal of wells treated with 1 μM Forskolin as 100% (DiRaddo et al, [2014]). Nonlinear regression was performed using a three-parameter logistic equation.

C3aR I98^3.28A = target: T2, C3aR I98^3.28A (Homo sapiens, UniProt Q16581, I98A); test: GloSensor-based cAMP assay, C3aR mutant I98A
T2 construct: expressed in transfected cells; host or cells: HEK293T
T2 sequence (Q16581 1-482 I98A): T1 sequence (Q16581 1-482 H81A) with A81H, I98A
Protocol: as §1

C3aR D417^7.35A = target: T3, C3aR D417^7.35A (Homo sapiens, UniProt Q16581, D417A); test: GloSensor-based cAMP assay, C3aR mutant D417A
T3 construct: expressed in transfected cells; host or cells: HEK293T
T3 sequence (Q16581 1-482 D417A): T1 sequence (Q16581 1-482 H81A) with A81H, D417A
Protocol: as §1

[1] = Dunnett's multiple comparisons test, WT minus mutant

## Cc1cc(C(c2ccc(Cl)cc2)c2ccc(Cl)cc2)sc1C(=O)N[C@@H](CCCNC(=N)N)C(=O)O [JR14a, reference compound]
C3aR; Log[ligand (M)] -6
  ΔBRET (ligand-vehicle): 0.012 and 0.008 and 0.015 and 0.018
C3aR; Log[ligand (M)] -7
  ΔBRET (ligand-vehicle): 0.005 and 0.015 and 0.017
C3aR; Log[ligand (M)] -8
  ΔBRET (ligand-vehicle): 0.004 and 0.00244 and 0.012 and 0.018
C3aR; Log[ligand (M)] -9
  ΔBRET (ligand-vehicle): 0.002 and -0.000881 and 0.00951 and 0.012
C3aR; Log[ligand (M)] -10
  ΔBRET (ligand-vehicle): 0.00084 and -0.0022 and 0.006 and 0.009
C3aR; Log[ligand (M)] -11
  ΔBRET (ligand-vehicle): 0.001 and -0.004 and 0.005 and 0.010
C3aR; Log[ligand (M)] -12
  ΔBRET (ligand-vehicle): -6.28e-5 and 0.00465 and 0.004
C3aR; dose-dependent increase in BRET ratio, read-out: EC50
  EC50: 5 nM
C3aR; pEC50 ± SEM, Gi recruitment to C3aR, Appendix Table S1A
  EC50: 4.57 nM
C3aR; span of ΔBRET curve, Figure EV1A numerical data
  Span Value: 0.010
C3aR H81^2.63A; [1]
  Mean Diff. of pIC50, WT vs. H81A: 0.544
C3aR H81^2.63A; H81A, Log[JR14a (M)] -9, single replicates, read-out: cAMP response (% Forskolin)
  remaining activity at 0.001 µM: 94.5%
C3aR H81^2.63A; H81A, Log[JR14a (M)] -10, single replicates, read-out: cAMP response (% Forskolin)
  remaining activity at 0.0001 µM: 95.5%
C3aR H81^2.63A; H81A, Log[JR14a (M)] -11, single replicates, read-out: cAMP response (% Forskolin)
  remaining activity at 10 pM: 93.3%
C3aR H81^2.63A; H81^2.63A relative to WT C3aR
  ΔpIC50 ± SE of Diff.: -0.54 ± 0.05
C3aR H81^2.63A; H81^2.63A, individual replicates, read-out: pIC50 (Replicate) (converted)
  IC50: 6.31 nM
C3aR H81^2.63A; IC50, H81^2.63A, dose-response plot
  IC50: 12.4 nM
C3aR H81^2.63A; pIC50 (Replicate), H81^2.63A, individual replicates
  IC50: 12 nM and 16.2 nM and 18.2 nM
C3aR I98^3.28A; [1]
  Mean Diff. of pIC50, WT vs. I98A: 0.356
C3aR I98^3.28A; I98A, Log[JR14a (M)] -8, single replicates, read-out: cAMP response (% Forskolin)
  remaining activity at 0.01 µM: 49.1%
C3aR I98^3.28A; I98A, Log[JR14a (M)] -9, single replicates, read-out: cAMP response (% Forskolin)
  remaining activity at 0.001 µM: 88.6%
C3aR I98^3.28A; I98A, Log[JR14a (M)] -10, single replicates, read-out: cAMP response (% Forskolin)
  remaining activity at 0.0001 µM: 95.5%
C3aR I98^3.28A; I98A, Log[JR14a (M)] -11, single replicates, read-out: cAMP response (% Forskolin)
  remaining activity at 10 pM: 93.5%
C3aR I98^3.28A; I98^3.28A relative to WT C3aR
  ΔpIC50 ± SE of Diff.: -0.36 ± 0.02
C3aR I98^3.28A; IC50, I98^3.28A, dose-response plot
  IC50: 9.13 nM
C3aR I98^3.28A; pIC50 (Replicate), I98^3.28A, individual replicates
  IC50: 6.17 nM and 11.5 nM and 9.77 nM
C3aR I98^3.28A; pIC50 ± SEM (Mean), I98^3.28A, mean of independent experiments
  IC50: 8.91 nM
C3aR D417^7.35A; D417A, Log[JR14a (M)] -6, single replicates, read-out: cAMP response (% Forskolin)
  remaining activity at 1 µM: 35.7%
C3aR D417^7.35A; D417A, Log[JR14a (M)] -7, single replicates, read-out: cAMP response (% Forskolin)
  remaining activity at 0.1 µM: 87.8%
C3aR D417^7.35A; D417A, Log[JR14a (M)] -9, single replicates, read-out: cAMP response (% Forskolin)
  remaining activity at 0.001 µM: 105%
C3aR D417^7.35A; D417A, Log[JR14a (M)] -10, single replicates, read-out: cAMP response (% Forskolin)
  remaining activity at 0.0001 µM: 104%
C3aR D417^7.35A; D417^7.35A relative to WT C3aR
  ΔpIC50 ± SE of Diff.: -2.18 ± 0.05
C3aR D417^7.35A; [1]
  Mean Diff. of pIC50, WT vs. D417A: 2.176
C3aR D417^7.35A; IC50, D417^7.35A, dose-response plot, Not calculated = entire loss of signaling
  IC50: 425 nM
C3aR D417^7.35A; pIC50 (Replicate), D417^7.35A, individual replicates
  IC50: 575 nM and 339 nM and 380 nM
C3aR D417^7.35A; pIC50 ± SEM (Mean), D417^7.35A, mean of independent experiments, Not calculated = entire loss of signaling
  IC50: 417 nM
